Counter-ions that a name gives are not always drawn.
Molecular target: T1, sigma-1 receptor (Cavia porcellus, UniProt Q60492)
T1 construct: Guinea pig brains were homogenized in 10 vols; (w/v) of Tris-HCl 50 mM 0.32 M sucrose; from tissue; host or cells: guinea pig brain membranes
Experiment: Sigma-1 receptor radioligand binding assay with [3H]-(+)-pentazocine in guinea pig brain membranes
Conditions: radioligand [3H]-(+)-pentazocine at 5.0 nM, 150 min at 37° C., nonspecific binding with 1 μM haloperidol
Procedure: Brain membrane preparation and binding assays for the al-receptor were performed as described (DeHaven-Hudkins, D. L., L. C. Fleissner, and F. Y. Ford-Rice, 1992, Characterization of the binding of [^3H](+)pentazocine to a recognition sites in guinea pig brain, Eur. J. Pharmacol. 227, 371-378) with some modifications. Guinea pig brains were homogenized in 10 vols. (w/v) of Tris-HCl 50 mM 0.32 M sucrose, pH 7.4, with a Kinematica Polytron PT 3000 at 15000 r.p.m. for 30 s. The homogenate was centrifuged at 1000 g for 10 min at 4° C. and the supernatants collected and centrifuged again at 48000 g for 15 min at 4° C. The pellet was resuspended in 10 volumes of Tris-HCl buffer (50 mM, pH 7.4), incubated at 37° C. for 30 min, and centrifuged at 48000 g for 20 min at 4° C. Following this, the pellet was resuspended in fresh Tris-HCl buffer (50 mM, pH 7.4) and stored on ice until use.
The radioligand used was [^3H]-(+)-pentazocine at 5.0 nM and the final volume was 200 μl. The incubation was initiated with the addition of 100 μl of membrane at a final tissue concentration of approximately 5 mg tissue net weight/mL and the incubation time was 150 m. at 37° C. After incubation, the membranes were collected onto pretreated glass fiber filterplate (MultiScreen-FC, Millipore), with polyethylenimine 0.1%. The filters were washed two times with 200 μl of washing buffer (50 mM Tris Cl, pH=7.4) and then 25 μl of Ecoscint H liquid scintillation cocktail were added. Microplates were allowed to set for several hours and then quantified by liquid scintillation spectrophotometry (1450 Microbeta, Wallac). Nonspecific binding was determined with 1 μM haloperidol.

T1 sequence (Q60492 whole entry): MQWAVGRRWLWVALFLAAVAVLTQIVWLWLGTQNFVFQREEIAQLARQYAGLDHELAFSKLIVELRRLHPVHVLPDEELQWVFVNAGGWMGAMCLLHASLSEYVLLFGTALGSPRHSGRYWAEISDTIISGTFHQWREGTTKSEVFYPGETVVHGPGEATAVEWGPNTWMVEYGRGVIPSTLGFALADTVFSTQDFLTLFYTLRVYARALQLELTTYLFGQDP

| Ki | Compound |
| --- | --- |
| > 500 nM | c1ccc(-c2nnn3c2CN[C@@H]2CN(C4CCOCC4)C[C@H]23)cc1 (racemic) [Example 19, (rac) (5a,8a-trans)-3-phenyl-7-(tetrahydro-2H-pyran-4-yl)-5,5a,6,7,8,8a-hexahydro-4H-pyrrolo[3,4-e][1,2,3]triazolo[1,5-a]pyrazine hydrochloride] |
| < 100 nM | CN1Cc2c(-c3ccccc3)nnn2[C@@H]2CN(Cc3ccccc3)C[C@@H]21 (racemic) [Example 12, (rac) (5a,8a-cis)-7-benzyl-5-methyl-3-phenyl-5,5a,6,7,8,8a-hexahydro-4H-pyrrolo[3,4-e][1,2,3]triazolo[1,5-a]pyrazine] |
| < 100 nM | Fc1ccccc1-c1nnn2c1CN[C@@H]1CN(Cc3ccccc3)C[C@H]12 [Example 29, (5aR,8aR)-7-benzyl-3-(2-fluorophenyl)-5,5a,6,7,8,8a-hexahydro-4H-pyrrolo[3,4-e][1,2,3]triazolo[1,5-a]pyrazine hydrochloride] |
| 100 to 500 nM | CCC(=O)N1Cc2c(-c3ccccc3)nnn2[C@@H]2CN(Cc3ccccc3)C[C@H]21 (racemic) [Example 17, (rac) 1-((5a,8a-trans)-7-benzyl-3-phenyl-6,7,8,8a-tetrahydro-4H-pyrrolo[3,4-e][1,2,3]triazolo[1,5-a]pyrazin-5(5aH)-yl)propan-1-one hydrochloride] |
| > 500 nM | CC(C)(C)OC(=O)N1Cc2c(-c3ccccc3)nnn2[C@@H]2CN(Cc3ccc(F)cc3)C[C@H]21 (racemic) [Example 7, (rac)-(5a,8a-trans)-tert-butyl-7-(4-fluorobenzyl)-3-phenyl-6,7,8,8a-tetrahydro-4H-pyrrolo[3,4-e][1,2,3]triazolo[1,5-a]pyrazine-5(5aH)-carboxylate] |
| > 500 nM | CCCN1C(=O)c2c(-c3ccccc3)nnn2[C@@H]2CN(Cc3ccccc3)C[C@@H]21 (racemic) [Example 5, (rac)-(5a,8a-cis)-7-benzyl-3-phenyl-5-propyl-5,5a,6,7,8,8a-hexahydro-4H-pyrrolo[3,4-e][1,2,3]triazolo[1,5-a]pyrazin-4-one] |
| > 500 nM | c1ccc(CN2C[C@@H]3NCc4c(-c5ccccc5)nnn4[C@H]3C2)cc1 [Example 21, (5aS,8aS)-7-benzyl-3-phenyl-5,5a,6,7,8,8a-hexahydro-4H-pyrrolo[3,4-e][1,2,3]triazolo[1,5-a]pyrazine hydrochloride] |
| 100 to 500 nM | c1ccc(-c2nnn3c2CN[C@@H]2CN(CC4CCOCC4)C[C@H]23)cc1 [Example 27, (5aR,8aR)-3-phenyl-7-((tetrahydro-2H-pyran-4-yl)methyl)-5,5a,6,7,8,8a-hexahydro-4H-pyrrolo[3,4-e][1,2,3]triazolo[1,5-a]pyrazine hydrochloride] |
| < 100 nM | c1ccc(CN2C[C@@H]3[C@@H](C2)NCc2c(-c4ccccc4)nnn23)cc1 [Example 22, (5aR,8aR)-7-benzyl-3-phenyl-5,5a,6,7,8,8a-hexahydro-4H-pyrrolo[3,4-e][1,2,3]triazolo[1,5-a]pyrazine hydrochloride] |
| < 100 nM | CCCN1CCc2c(-c3ccccc3)nnn2[C@@H]2CN(Cc3ccccc3)C[C@@H]21 (racemic) [Example 31, (rac) (6a,9a-cis)-8-benzyl-3-phenyl-6-propyl-4,5,6,6a,7,8,9,9a-octahydropyrrolo[3,4-b][1,2,3]triazolo[1,5-d][1,4]diazepine hydrochloride] |

— patent publication US10035805B2, “Tricyclic triazolic compounds” (LABORATORIOS DEL DR. ESTEVE S.A., priority 2014, dated 2018)
